Experimental data reported in patent publication US20260199240A1, “BIOMEDICAL APPLICATIONS OF AZOBENZENE-BASED LIPIDOIDS” (Trustees of Tufts College, priority 2022, published 2026).

Columns and labels:
[1] = Photoisomerization of Azo lipidoids in DMSO (UV-Vis absorption); assay type: physicochemical; conditions: for UV irradiation time until spectral changes level off (photostationary state): UV 365 nm, 5.40 mW/cm^2; for additional Vis irradiation time that reverses the spectral change: Vis >400 nm, 20 mW/cm^2
Description: Azo lipidoid was prepared as 50 μM solution in anhydrous dimethyl sulfoxide (DMSO). The sample was irradiated with UV (365 nm for 6 s) and Vis light (>400 nm for 6 s), respectively. The power densities for 365 and >400 nm was 5.40 and 20 mW/cm^2, respectively.
SAzo lipidoid was prepared as 30 μM solution in anhydrous dimethyl sulfoxide (DMSO). TAzo lipidoid was prepared as 15 μM solution in DMSO. These samples were irradiated with UV (365 nm for 6 s) and Vis light (>400 nm for 6 s), respectively. The power densities for 365 and >400 nm are 5.40 and 20 mW/cm^2, respectively.

4T1 tumor cells = assay: Cell cytotoxicity using CCK-8 assay; assay type: cell-based, mouse
Description: In vitro cytotoxicity was assessed by the standard CCK-8 assay. To test the cytotoxicity of DSPC-Azo@GOx with or without UV/Vis light irradiation, 4T1 tumor cells were seeded in the basolateral chamber of a 24-well transwell plate at a density of 10^5 cells per well and cultured in 5% CO2 at 37° C. for overnight (16 h). Then, DSPC-Azo@GOx was added to the upper chamber. Then, the samples were irradiated using the UV/Vis light (irradiated for 5 min every 8 hours). After three irradiation, the cell viability was measured using CCK-8 kit according to the manufacturer's instruction.

[2] = Critical micelle concentration in aqueous solution; assay type: physicochemical
[3] = helper lipid; cited from earlier work

| Compound | UV irradiation time until spectral changes level off (photostationary state) [1] | additional Vis irradiation time that reverses the spectral change [1] | Tm (phase transition temperature) [3] | headgroup surface area [3] | further results |
| --- | --- | --- | --- | --- | --- |
| CCCCCCCCCCCC(=O)Nc1ccc(/N=N/c2ccc(C[N+](C)(C)C)cc2)cc1 [Azo lipidoid] | 6 s | 6 s |  |  | dose dependent cell viability (4T1 tumor cells; 4T1 cells, 24 h incubation): relatively good biocompatibility; critical micelle concentration (CMC) [2]: ≈ 30 μM |
| CCCCCCCCCCCCCC(=O)OC[C@H](COP(=O)([O-])OCC[N+](C)(C)C)OC(=O)CCCCCCCCCCCCC [DMPC, dimyristoylphosphatidylcholine] |  |  | 24.1 °C | ~ 0.665 nm^2 |  |
| CCCCCCCCCCCCCCCC(=O)OC[C@H](COP(=O)([O-])OCC[N+](C)(C)C)OC(=O)CCCCCCCCCCCCCCC [DPPC, dipalmitoylphosphatidylcholine] |  |  | 41.3 °C | ~ 0.665 nm^2 |  |
| CCCCCCCCCCCCCCCCCC(=O)OC[C@H](COP(=O)([O-])OCC[N+](C)(C)C)OC(=O)CCCCCCCCCCCCCCCCC [DSPC, distearoylphosphatidylcholine] |  |  | 55 °C | ~ 0.430 nm^2 |  |
| CCCCCCCCCCCC(=O)Nc1ccc(/N=N/c2ccc(C[N+](C)(C)CC[N+](C)(C)Cc3ccc(/N=N/c4ccc(NC(=O)CCCCCCCCCCC)cc4)cc3)cc2)cc1 [TAzo lipidoid] | 6 s | 6 s |  |  |  |
| Glucose Oxidase [GOx] |  |  |  |  | cell viability with versus without UV/Vis light treatment (4T1 tumor cells; dialysis setup, 24 h): no significant differences in cell viabilities |
